Molecules are shown by their SMILES.

The target in experiment [1] is Dipeptidyl peptidase 2 (Homo sapiens, UniProt Q9UHL4). The experiment in a line: Inhibition of human Dipeptidylpeptidase II (DPP II).
In experiment [2] the target is Dipeptidyl peptidase 4 (Homo sapiens, UniProt P27487). Description: Inhibition of human Dipeptidylpeptidase IV (DPP IV).
Experiment [3] concerns the target Dipeptidyl peptidase II and dipeptidyl peptidase IV (DPP2 and DPP4) (Homo sapiens) (UniProt P27487+Q9UHL4). Description: Ratio of IC50 for DPP IV to that of IC50 for DPP II. In kind it is protein assay.
A short description of experiment [4]: Inhibition of human Dipeptidylpeptidase II (DPP II).

Dipeptidyl peptidase 4, sequence (P27487 whole entry): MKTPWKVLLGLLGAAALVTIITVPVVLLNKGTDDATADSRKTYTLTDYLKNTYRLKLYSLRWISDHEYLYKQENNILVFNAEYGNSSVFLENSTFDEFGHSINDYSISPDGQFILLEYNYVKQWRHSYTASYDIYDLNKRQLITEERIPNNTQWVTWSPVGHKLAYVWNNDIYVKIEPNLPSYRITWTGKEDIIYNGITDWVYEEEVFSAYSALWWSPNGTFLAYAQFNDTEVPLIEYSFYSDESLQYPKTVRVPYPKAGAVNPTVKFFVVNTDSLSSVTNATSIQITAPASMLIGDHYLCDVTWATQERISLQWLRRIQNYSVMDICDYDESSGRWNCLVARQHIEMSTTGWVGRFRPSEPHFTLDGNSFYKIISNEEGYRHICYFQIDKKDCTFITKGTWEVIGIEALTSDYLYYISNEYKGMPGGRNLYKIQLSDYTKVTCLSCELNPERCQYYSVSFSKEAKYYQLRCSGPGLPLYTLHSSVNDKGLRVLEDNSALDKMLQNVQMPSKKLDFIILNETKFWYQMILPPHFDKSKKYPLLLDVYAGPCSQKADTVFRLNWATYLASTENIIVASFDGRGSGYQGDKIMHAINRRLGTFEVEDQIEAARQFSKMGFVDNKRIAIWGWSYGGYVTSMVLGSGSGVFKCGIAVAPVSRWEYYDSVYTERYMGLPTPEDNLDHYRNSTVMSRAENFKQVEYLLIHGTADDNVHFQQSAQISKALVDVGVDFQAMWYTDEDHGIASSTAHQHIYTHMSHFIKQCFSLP

With `N[C@@H](CCNCc1ccc(Cl)cc1)C(=O)N1CCCC(O)C1` (stereo partly drawn), the IC50 in experiment [1] is 0.0547 µM; in experiment [2] it was greater than 1000 µM. For the same compound, in experiment [3], the SI is greater than 20000.
Regarding `COc1ccc(CNCC[C@H](N)C(=O)N2CCCCC2)c(OC)c1`, the figures for the IC50 in experiment [1] and in experiment [2] were 0.0027 µM and greater than 500 µM, respectively. Further, the SI in experiment [3] is greater than 180000.
For `N[C@@H](CCN(Cc1ccc(Cl)cc1)Cc1ccc(Cl)cc1)C(=O)N1CCCCC1`, in that order: 0.0042 µM, greater than 125 µM and greater than 30000.
For `COc1cccc(CNCC[C@H](N)C(=O)N2CCCCC2)c1`, the IC50 in experiment [1] worked out at 0.00177 µM; in experiment [2], 250 µM. Besides, in experiment [3], the SI turned out to be 140000.
With `CC(=O)NCC[C@H](N)C(=O)N1CCCCC1`, the figures for the IC50 in experiment [1] and in experiment [2] were 0.0015 µM and 518 µM, respectively.
Consider `N[C@@H](CCNCc1cccc2ccccc12)C(=O)N1CCCCC1`, for which the IC50 is 0.00131 µM in experiment [1] and 301 µM in experiment [2]. The SI in experiment [3] was 230000.
Regarding `N[C@@H](CCNc1ncccc1[N+](=O)[O-])C(=O)N1CCCCC1`, the IC50 in experiment [1] was found to be 0.0235 µM; in experiment [2], 56 µM.
Take `N=C(N)NCC[C@H](N)C(=O)N1CCCCC1`: the IC50 in experiment [1] stood at 0.0018 µM; in experiment [2] it was 545 µM.
Regarding `N[C@@H](CCNCC1CCCCC1)C(=O)N1CCCCC1`, the IC50 in experiment [1] amounted to 0.0011 µM; in experiment [2], 496 µM. In addition, the SI in experiment [3] was found to be 450000.
As for `COc1ccccc1CNCC[C@H](N)C(=O)N1CCCCC1`, the IC50 is 0.185 µM in experiment [1] and greater than 500 µM in experiment [2]. Besides, in experiment [3], the SI was greater than 270000.
As for `N[C@@H](CCNC1CCNCC1)C(=O)N1CCCCC1`, the concentration for half-maximal inhibition (IC50) is 0.085 µM in experiment [1] and 64 µM in experiment [2]. The SI in experiment [3] turned out to be 750.
Regarding `N[C@@H](CCNCc1ccc(Cl)cc1)C(=O)N1CC=CCC1`, the IC50 in experiment [1] was found to be 0.0011 µM; in experiment [2], 148 µM. The SI in experiment [3] worked out at 130000.
For the compound `CC1CCCCN1C(=O)[C@@H](N)CCNCc1ccc(Cl)cc1` (stereo partly drawn), the IC50 in experiment [1] is 0.0023 µM; in experiment [2], greater than 500 µM. In addition, the SI in experiment [3] is greater than 220000.
Take `N#CC1CCCCN1C(=O)[C@@H](N)CCNCc1ccccc1` (stereo partly drawn): the values for the IC50 in experiment [1] and in experiment [2] were 0.004 µM and 68 µM, respectively. Further, the SI in experiment [3] was found to be 17000.
For the compound `NCC[C@H](N)C(=O)N1CCCCC1`, the IC50 in experiment [4] is 0.13 µM; in experiment [2], greater than 1000 µM. Besides, the SI in experiment [3] is greater than 7600.
On to `N[C@@H](CCNCc1ccc(Cl)cc1)C(=O)N1CCC(F)CC1`, for which the results for the half-maximal inhibitory concentration (IC50) in experiment [1] and in experiment [2] were 0.00039 µM and 70 µM, respectively. Also, in experiment [3], the SI was determined as 180000.
Take `CN[C@@H](CCNCc1ccc(Cl)cc1)C(=O)N1CCCCC1`: the values for the IC50 in experiment [1] and in experiment [2] were 0.187 µM and greater than 500 µM, respectively. For the same compound, the SI in experiment [3] is greater than 2700.
For `N[C@@H](CCNCc1cccc(Cl)c1)C(=O)N1CCCCC1`, in that order: 0.00134 µM, 186 µM and 140000.
Consider `N[C@@H](CCNC1CCCCC1)C(=O)N1CCCCC1`, for which the IC50 is 0.0186 µM in experiment [1] and greater than 1000 µM in experiment [2]. Besides, the SI in experiment [3] was greater than 50000.
Turning to `N[C@@H](CCNCc1ccccc1OCc1ccccc1)C(=O)N1CCCCC1`, the IC50 in experiment [1] is 0.00039 µM; in experiment [2] it was greater than 500 µM. Also, the SI in experiment [3] was greater than 1.3e+06.
In the case of `N[C@@H](CCNCc1cccs1)C(=O)N1CCCCC1`, the IC50 stood at 0.0008 µM in experiment [1] and 278 µM in experiment [2]. Moreover, the SI in experiment [3] is 350000.
Take `N#Cc1cccc(CNCC[C@H](N)C(=O)N2CCCCC2)c1`: the results for the IC50 in experiment [1] and in experiment [2] were 0.0027 µM and 132 µM, respectively. In addition, the SI in experiment [3] came to 50000.
Consider `NCC[C@H](N=C(N)N)C(=O)N1CCCCC1`, for which the IC50 in experiment [1] was 0.0074 µM; in experiment [2], greater than 1000 µM. Moreover, in experiment [3], the SI was greater than 140.
As for `N[C@@H](CCNCc1ccncc1)C(=O)N1CCCCC1`, the IC50 in experiment [1] was found to be 0.00075 µM; in experiment [2], 125 µM. Moreover, the SI in experiment [3] is 170000.
For `N#CC1CCCCN1C(=O)[C@@H](N)CCNCc1ccc(Cl)cc1` (stereo partly drawn), the IC50 in experiment [1] amounted to 0.0065 µM; in experiment [2], 13 µM. Moreover, the SI in experiment [3] came to 2000.
With `N[C@@H](CCNCCCc1ccccc1)C(=O)N1CCCCC1`, the figures for the IC50 in experiment [1] and in experiment [2] were 0.00191 µM and greater than 500 µM, respectively. The SI in experiment [3] is greater than 260000.
As to `N[C@@H](CCN(Cc1ccccc1)Cc1ccccc1)C(=O)N1CCCCC1`, the IC50 is 0.0006 µM in experiment [1] and 266 µM in experiment [2]. In experiment [3], the SI was determined as 440000.
Turning to `N[C@@H](CCNCc1ccc(OCc2ccccc2)cc1)C(=O)N1CCCCC1`, the IC50 in experiment [1] was determined as 0.00041 µM; in experiment [2], 192 µM. The SI in experiment [3] worked out at 470000.
For the compound `N[C@@H](CCNCc1ccc(Cl)cc1)C(=O)N1CCC(O)CC1`, the IC50 was 0.113 µM in experiment [1] and greater than 1000 µM in experiment [2]. In addition, in experiment [3], the SI was greater than 9000.
In the case of `N[C@@H](CCNCc1ccc(Cl)cc1)C(=O)N1CCCC(F)C1` (stereo partly drawn), the IC50 in experiment [1] came out at 0.00062 µM; in experiment [2], 500 µM.
With `NCC[C@H](NC1CCNCC1)C(=O)N1CCCCC1`, the IC50 in experiment [1] was 0.017 µM; in experiment [2], greater than 1000 µM. In experiment [3], the SI was greater than 59.
With `N[C@@H](CCNCCc1ccccc1)C(=O)N1CCCCC1`, the IC50 turned out to be 0.0009 µM in experiment [1] and 188 µM in experiment [2]. Also, the SI in experiment [3] came to 210000.
Regarding `CN(CC[C@H](N)C(=O)N1CCCCC1)Cc1ccc(Cl)cc1`, the figures for the IC50 in experiment [1] and in experiment [2] were 0.00022 µM and 196 µM, respectively. Besides, the SI in experiment [3] came to 890000.
In the case of `N[C@@H](CCNC(=O)c1ccccc1)C(=O)N1CCCCC1`, the IC50 in experiment [1] is 0.0074 µM; in experiment [2], 418 µM.
Consider `CC1CCCN(C(=O)[C@@H](N)CCNCc2ccc(Cl)cc2)C1` (stereo partly drawn), for which the values for the IC50 in experiment [1] and in experiment [2] were 0.00113 µM and greater than 500 µM, respectively. Moreover, the SI in experiment [3] was greater than 440000.
Consider `N#Cc1ccc(NCC[C@H](N)C(=O)N2CCCCC2)nc1`, for which the values for the IC50 in experiment [1] and in experiment [2] were 0.0046 µM and 205 µM, respectively.
As to `COc1ccc(CNCC[C@H](N)C(=O)N2CCCCC2)cc1`, the IC50 in experiment [1] is 0.00066 µM; in experiment [2], 417 µM. Further, the SI in experiment [3] is 630000.
Take `N[C@@H](CCNCc1ccccc1Cl)C(=O)N1CCCCC1`: the IC50 in experiment [1] amounted to 0.00023 µM; in experiment [2] it was 345 µM. The SI in experiment [3] was 1.5e+06.
`CC1CCN(C(=O)[C@@H](N)CCNCc2ccc(Cl)cc2)CC1`: the IC50 in experiment [1] is 0.00055 µM; in experiment [2], greater than 500 µM. The SI in experiment [3] was greater than 910000.
For `N[C@@H](CCNCc1ccc(Cl)cc1)C(=O)N1CCCCC1`, the results for the IC50 in experiment [1] and in experiment [2] were 0.00048 µM and 165 µM, respectively. For the same compound, the SI in experiment [3] was 340000.
As for `NCC[C@H](NCc1ccccc1)C(=O)N1CCCCC1`, the results for the IC50 in experiment [1] and in experiment [2] were 0.0125 µM and greater than 1000 µM, respectively. For the same compound, the SI in experiment [3] was greater than 80.
Take `N[C@@H](CCNc1ccccc1)C(=O)N1CCCCC1`: the IC50 in experiment [1] was 0.0015 µM; in experiment [2], 250 µM.
Turning to `N[C@@H](CCNCc1ccccc1)C(=O)N1CCCCC1`, the figures for the IC50 in experiment [1] and in experiment [2] were 0.00203 µM and 247 µM, respectively. In addition, in experiment [3], the SI is 120000.
The like results for `N#C[C@@H]1CCCCN1C(=O)[C@@H](N)CCN` were, in that order, 0.038 µM, 151 µM and 4000.
For the compound `N[C@@H](CCNCc1ccc2ccccc2c1)C(=O)N1CCCCC1`, the values for the IC50 in experiment [1] and in experiment [2] were 0.0011 µM and 179 µM, respectively. Further, in experiment [3], the SI was 160000.

For orientation: IC50 means the concentration that gives 50% inhibition.

The values are drawn from ChEMBL document CHEMBL1148463, “Gamma-amino-substituted analogues of 1-[(S)-2,4-diaminobutanoyl]piperidine as highly potent and selective dipeptidyl peptidase II inhibitors” (J Med Chem, 2004).
